This assay deals with T1, PcSRB (rPcSRB).
T1 construct: recombinant, pET-32a(+) BamHI/XhoI, His-tagged, tag kept
The assay is described as follows: microscale thermophoresis, RED-tris-NTA labelled protein. The note with it: PBS-T; His-tagged protein labelled, ligand unlabelled. It is filed as binding, Procambarus clarkii.

In the case of `CC(C)CCC[C@@H](C)[C@H]1CC[C@H]2[C@@H]3CC=C4C=CCC[C@]4(C)[C@H]3CC[C@]12C` [CD3,5, cholesta-3,5-diene], the Kd (usually the equilibrium constant for the complex coming apart) turned out to be 4.5 µM.

The values are drawn from publication PMC11915803, “Class B scavenger receptor resists WSSV replication by recognizing the viral lipid molecule and promoting phagocytosis” (Journal of Virology, 2025).
